How the values were obtained:
barnyardgrass [1] = assay: Test A pre-/postemergence herbicide test; type: in vivo, Echinochloa crus-galli
Outline: (§1)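 Seeds sown in sandy loam received a preemergence directed soil spray of compound in non-phytotoxic solvent with surfactant; postemergence plants (2–10 cm, one- to two-leaf stage) were sprayed to runoff at the same time. After ~10 days in greenhouse, injury was rated visually versus untreated controls (0 = no effect, 100 = complete control).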

lambsquarters = assay: Test B pre-/postemergence herbicide test; type: in vivo, Chenopodium album
Outline: (§2)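 Flooded paddy rice and barnyardgrass were treated at the 2-leaf stage; upland plantings received compound either on sown seed or on 1- to 4-leaf seedlings. All were kept 13–15 days in a greenhouse and scored visually, 0–100, relative to untreated plants.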

pigweed = assay: Test B pre-/postemergence herbicide test; type: in vivo, Amaranthus retroflexus
Outline: as §2

corn = assay: Test B pre-/postemergence herbicide test; type: in vivo, Zea mays
Outline: as §2

giant foxtail [2] = assay: Test B pre-/postemergence herbicide test; type: in vivo, Setaria faberi
Outline: as §2

morningglory [3] = assay: Test A pre-/postemergence herbicide test; type: in vivo, Ipomoea spp.
Outline: as §1

Surinam grass = assay: Test B pre-/postemergence herbicide test; type: in vivo, Urochloa decumbens
Outline: as §2

rice [4] = assay: Test B flooded paddy test; type: in vivo, Oryza sativa; details: 1000 g ai/ha, visual rating, scale 0 to 100 (0 no effect, 100 complete control), 13 to 15 days
Outline: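 After treating 2-leaf paddy plants or 2–18 cm postemergence plants (1 to 4 leaves) with formulated chemical, researchers kept them in a greenhouse for 13–15 days. Effects were judged visually versus controls: 0 indicates none, 100 total control.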

ducksalad = assay: Test B flooded paddy test; type: in vivo, Heteranthera limosa; details: 1000 g ai/ha, visual rating, scale 0 to 100 (0 no effect, 100 complete control), 13 to 15 days
Outline: (§3)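 Postemergence plants were sprayed with formulated test chemicals at 2 to 18 cm height (1- to 4-leaf stage); paddy species were grown to the 2-leaf stage. After 13 to 15 days in a greenhouse, injury was rated visually against untreated controls on a 0–100 scale (0 = no effect, 100 = complete control).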

cocklebur = assay: Test B pre-/postemergence herbicide test; type: in vivo, Xanthium strumarium
Outline: (§4)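 Seeds were planted and treated preemergence with compounds formulated in a non-phytotoxic solvent mixture containing surfactant, while plants at the 1- to 4-leaf stage (2 to 18 cm) received postemergence sprays. Flooded paddy plants were grown to the 2-leaf stage. After 13 to 15 days in a greenhouse, injury was visually rated 0–100 against untreated controls.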

morningglory [5] = assay: Test B pre-/postemergence herbicide test; type: in vivo, Ipomoea coccinea
Outline: as §4

large crabgrass [6] = assay: Test B pre-/postemergence herbicide test; type: in vivo, Digitaria sanguinalis
Outline: as §2

wheat = assay: Test B postemergence herbicide test; type: in vivo, Triticum aestivum; parameters: key to Wheat plant response rating: 0 = no effect, 100 = complete control; details: scale 0 (no effect) to 100 (complete control)
Outline: (§5)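 Read-out: visual comparison with controls, scored 0 to 100, where 100 means complete control and 0 no effect. Formulated chemicals were applied postemergence to plants 2–18 cm tall (1- to 4-leaf), or to flooded-paddy plants at the 2-leaf stage, then held 13 to 15 days under glass.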

barnyardgrass [7] = assay: Test B flooded paddy test; type: in vivo, Echinochloa crus-galli; details: 1000 g ai/ha, visual rating, scale 0 to 100 (0 no effect, 100 complete control), 13 to 15 days
Outline: as §3

redroot pigweed = assay: Test A pre-/postemergence herbicide test; type: in vivo, Amaranthus retroflexus
Outline: as §1

barnyardgrass [8] = assay: Test B pre-/postemergence herbicide test; type: in vivo, Echinochloa crus-galli
Outline: as §4

large crabgrass [9] = assay: Test A pre-/postemergence herbicide test; type: in vivo, Digitaria sanguinalis
Outline: as §1

giant foxtail [10] = assay: Test A pre-/postemergence herbicide test; type: in vivo, Setaria faberi
Outline: as §1

wild oat = assay: Test B postemergence herbicide test; type: in vivo, Avena fatua; details: scale 0 (no effect) to 100 (complete control)
Outline: as §5

blackgrass = assay: Test B postemergence herbicide test; type: in vivo, Alopecurus myosuroides; details: scale 0 (no effect) to 100 (complete control)
Outline: as §3

rice [11] = assay: Test B pre-/postemergence herbicide test; type: in vivo, Oryza sativa; details: preemergence
Outline: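 Evaluation is visual, comparing treated with control plants on a scale where 0 means no effect and 100 means full control. Treatments were preemergence, or postemergence on seedlings 2–18 cm tall, and held 13–15 days in the greenhouse.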

[12] = system: small flower umbrella sedge; assay: Test B flooded paddy test; type: in vivo, Cyperus difformis; details: 1000 g ai/ha, visual rating, scale 0 to 100 (0 no effect, 100 complete control), 13 to 15 days
Outline: as §3

velvetleaf [13] = assay: Test B pre-/postemergence herbicide test; type: in vivo, Abutilon theophrasti
Outline: as §2

velvetleaf [14] = assay: Test A pre-/postemergence herbicide test; type: in vivo, Abutilon theophrasti
Outline: as §1

[15] = Postemergence, 500 g ai/ha, 0 to 100 scale, 0 no effect, 100 complete control
[16] = Postemergence, 2000 g ai/ha, 0 to 100 scale, 0 no effect, 100 complete control
[17] = Preemergence, 500 g ai/ha, visual rating, 0 to 100 scale (0 no effect, 100 complete control)
[18] = Preemergence, 2000 g ai/ha, visual rating, 0 to 100 scale (0 no effect, 100 complete control)
[19] = 500 g ai/ha, visual rating 0-100, 0 no effect, 100 complete control, preemergence
[20] = Postemergence, 500 g ai/ha, visual rating after 13 to 15 days, scale 0 (no effect) to 100 (complete control)
[21] = postemergence, 125 g ai/ha, visual rating, scale 0 (no effect) to 100 (complete control)
[22] = preemergence, 125 g ai/ha, 0 to 100 scale, 0 is no effect, 100 is complete control
[23] = Postemergence, 500 g ai/ha, visual rating after 13 to 15 days
[24] = postemergence, 125 g ai/ha, visual rating

Compound: CCOC(=O)c1cccc(NC(=O)c2cc(C(C)(C)C)nn2CC)c1OC [Compound 97]
- Barnyardgrass plant response rating (barnyardgrass [1]; [15]): 5
- Plant response rating, Barnyardgrass (barnyardgrass [1]; [16]): 10
- Barnyardgrass plant response rating (barnyardgrass [1]; [17]): 0
- Barnyardgrass plant response rating (barnyardgrass [1]; [18]): 0
- Plant response rating, Lambsquarters (lambsquarters; [19]): 0
- Plant response rating, Lambsquarters (lambsquarters; [20]): 70
- Lambsquarters plant response rating (lambsquarters; [21]): 50
- Plant response rating, Lambsquarters (lambsquarters; [22]): 0
- Plant response rating, Pigweed (pigweed; [19]): 0
- Plant response rating, Pigweed (pigweed; [20]): 0
- Pigweed plant response rating (pigweed; [21]): 0
- Plant response rating, Pigweed (pigweed; [22]): 0
- Plant response rating, Corn (corn; [19]): 0
- Plant response rating, Corn (corn; [20]): 0
- Corn plant response rating (corn; [21]): 0
- Plant response rating, Corn (corn; [22]): 0
- Plant response rating, Foxtail, Giant (giant foxtail [2]; [19]): 0
- Plant response rating, Foxtail, Giant (giant foxtail [2]; [20]): 0
- Foxtail, Giant plant response rating (giant foxtail [2]; [21]): 0
- Plant response rating, Foxtail, Giant (giant foxtail [2]; [22]): 0
- Morningglory plant response rating (morningglory [3]; [15]): 0
- Plant response rating, Morningglory (morningglory [3]; [16]): 0
- Morningglory plant response rating (morningglory [3]; [17]): 0
- Morningglory plant response rating (morningglory [3]; [18]): 0
- Plant response rating, Surinam Grass (Surinam grass; [19]): 0
- Plant response rating, Surinam Grass (Surinam grass; [20]): 0
- Surinam Grass plant response rating (Surinam grass; [21]): 0
- Plant response rating, Surinam Grass (Surinam grass; [22]): 0
- Rice plant response rating (rice [4]): 0
- Ducksalad plant response rating (ducksalad): 50
- Plant response rating, Cocklebur (cocklebur; [19]): 0
- Plant response rating, Cocklebur (cocklebur; [20]): 70
- Cocklebur plant response rating (cocklebur; [21]): 0
- Plant response rating, Cocklebur (cocklebur; [22]): 0
- Plant response rating, Morningglory (morningglory [5]; [19]): 0
- Plant response rating, Morningglory (morningglory [5]; [20]): 0
- Morningglory plant response rating (morningglory [5]; [21]): 0
- Plant response rating, Morningglory (morningglory [5]; [22]): 0
- Plant response rating, Crabgrass, Large (large crabgrass [6]; [19]): 0
- Plant response rating, Crabgrass, Large (large crabgrass [6]; [20]): 0
- Crabgrass, Large plant response rating (large crabgrass [6]; [21]): 0
- Plant response rating, Crabgrass, Large (large crabgrass [6]; [22]): 0
- Plant response rating, Wheat (wheat; [23]): 0
- Wheat plant response rating (wheat; [24]): 0
- Barnyardgrass plant response rating (barnyardgrass [7]): 0
- Pigweed plant response rating (redroot pigweed; [15]): 0
- Plant response rating, Pigweed (redroot pigweed; [16]): 25
- Pigweed plant response rating (redroot pigweed; [17]): 0
- Pigweed plant response rating (redroot pigweed; [18]): 0
- Plant response rating, Barnyardgrass (barnyardgrass [8]; [19]): 0
- Plant response rating, Barnyardgrass (barnyardgrass [8]; [20]): 0
- Barnyardgrass plant response rating (barnyardgrass [8]; [21]): 0
- Plant response rating, Barnyardgrass (barnyardgrass [8]; [22]): 0
- Crabgrass, Large plant response rating (large crabgrass [9]; [15]): 10
- Plant response rating, Crabgrass, Large (large crabgrass [9]; [16]): 10
- Crabgrass, Large plant response rating (large crabgrass [9]; [17]): 0
- Crabgrass, Large plant response rating (large crabgrass [9]; [18]): 0
- Foxtail, Giant plant response rating (giant foxtail [10]; [15]): 5
- Plant response rating, Foxtail, Giant (giant foxtail [10]; [16]): 10
- Foxtail, Giant plant response rating (giant foxtail [10]; [17]): 0
- Foxtail, Giant plant response rating (giant foxtail [10]; [18]): 0
- Plant response rating, Oat, Wild (wild oat; [23]): 0
- Oat, Wild plant response rating (wild oat; [24]): 0
- Plant response rating, Blackgrass (blackgrass; [23]): 0
- Blackgrass plant response rating (blackgrass; [24]): 0
- Plant response rating, Rice (rice [11]; 500 g ai/ha, visual rating 0-100, 0 no effect, 100 complete control): 0
- Plant response rating, Rice (rice [11]; 125 g ai/ha, 0 to 100 scale, 0 is no effect, 100 is complete control): 0
- Sedge, Umbrella plant response rating [12]: 70
- Plant response rating, Velvetleaf (velvetleaf [13]; [19]): 0
- Plant response rating, Velvetleaf (velvetleaf [13]; [20]): 60
- Velvetleaf plant response rating (velvetleaf [13]; [21]): 0
- Plant response rating, Velvetleaf (velvetleaf [13]; [22]): 0
- Velvetleaf plant response rating (velvetleaf [14]; [15]): 5
- Plant response rating, Velvetleaf (velvetleaf [14]; [16]): 10
- Velvetleaf plant response rating (velvetleaf [14]; [17]): 0
- Velvetleaf plant response rating (velvetleaf [14]; [18]): 0

— patent US20060069132A1, “Azolecarboxamide herbicides” (priority 2004, published 2006)
